Data as given in patent US11077167B2, “Agent for promoting skeletal muscle injury repair” (Osaka University, priority 2017, dated 2021).

What was measured:
[1] = system: muscle injury model rats (incised masseter muscles on both sides); assay: Electrophysiological experiment (masseter EMG), Example 2; format: in vivo, Jcl:SD rats
Description: (§1) Incisions were made in masseter muscles on both sides in Jcl:SD rats (10 weeks old) under anesthesia in the same manner as in Example 1. Immediately after muscle incision, 1 mL each of the SV peptide (20 ng/mL) or 1 mL each of PBS was intramuscularly administered into several sites surrounding the cut surfaces. The incision on each side was made along a straight line connecting the lateral angle of the eye and the mandibular angle, extending in depth from the fascia on the skin side to the lateral periosteum on the mandibular ramus. The cut surfaces were subjected to electrocoagulation with an electric scalpel for the arrest of bleeding (see FIG. 1). […]
In the same manner as in Example 1, bipolar needle electrodes were retained in the masseter muscles on both sides, and myogenic potential signals received through connectors fixed to both sides of the parietal bone were monitored. EMG data were recorded at postoperative weeks 1, 2, 4, 6, and 8.
The integral of bursts in the left (administration side) masseter muscle in the SV group or the PBS group was calculated as a measure of muscle activity and represented in FIG. 9 as a relative value compared to the 1-week postoperative value, which was assumed as 1. […]

[2] = system: muscle injury model rats (incised masseter muscles on both sides); assay: Behavioral physiological experiment (feeding efficiency), Example 2; format: in vivo, Jcl:SD rats
Description: as §1
In the same manner as in Example 1, each rat was housed in a transparent plastic cage of 30 cm in length×30 cm in width×30 cm in height at postoperative weeks 1, 2, 4, 6, and 8, and the behavior was recorded on video cameras during the active time of rats (18:00 to 22:00). Food intake and mastication time were measured, and the food intake per unit of mastication time (feeding efficiency) was calculated.

[3] = system: Human skeletal muscle myoblasts (HSMMs); assay: Chemotactic capacity (Chemotaxicell membrane); format: cell-based; conditions: SV peptide 20 ng/mL as chemoattractant; 12 hours; vs PBS or random SV
Description: (§2) Human skeletal muscle myoblasts (HSMMs) were purchased from Lonza and used. The medium used for HSMM culture was the supplier's recommended medium (Skeletal Muscle Growth Media-2 supplemented with SingleQuots Kit).
A polycarbonate membrane with a pore size of 8 μm (Chemotaxicell: Kurabo Industries LTD.) was immersed in a 10 μg/mL fibronectin solution at room temperature for 30 minutes for coating the membrane. A medium containing the SV peptide (20 ng/mL, SV group), the random SV (20 ng/mL, random SV group), or PBS (PBS group) as a chemoattractant was added to a lower chamber. On an upper chamber, human skeletal muscle satellite cells and human skeletal muscle myoblasts were separately seeded at 2.0×10^4 cells/mL in DMEM containing 0.1% BSA. A pair of chambers was incubated at 37° C. for 12 hours. The cells on the upper surface of the membrane were removed with a swab, and the membrane was fixed with a 10% neutral buffered formalin solution (Wako Pure Chemical Industries, Ltd.) and stained with hematoxylin. The number of cells migrated to the lower surface of the membrane was measured under an optical microscope.

[4] = system: muscle injury model rats (incised masseter muscles on both sides); assay: In vivo skeletal muscle forming capability (HE, MyoD, myogenin staining at postoperative week 1), Example 4; parameters: species or system Jcl:SD rats
Description: In the same manner as in Example 2, incisions were made in masseter muscles on both sides in Jcl:SD rats (10 weeks old) under anesthesia, and immediately after that, the rats were subjected to administration of 1 mL of the SV peptide (20 ng/mL) or 1 mL of PBS into the incised left masseter muscle without administration into the incised right masseter muscle. The two groups were called “SV group” and “PBS group”. Each rat was euthanized at postoperative week 1, and the masseter muscles on both sides were excised. The masseter muscles were embedded in paraffin and transversally sliced into histological sections by the usual method. The sections were subjected to HE staining, immunostaining with an anti-MyoD antibody and immunostaining with an anti-myogenin antibody. The anti-MyoD antibody used was an anti-mouse MyoD antibody (Abcam), and the anti-myogenin antibody used was an anti-mouse myogenin antibody (Abcam). A biotin-labeled anti-rabbit IgG antibody (DAKO) was used as a secondary antibody.
The area of granulation tissue formed on the cut surfaces was measured on the HE-staining specimens using the image-analysis software ImageJ (NIH, USA). The granulation tissue area ratios in the SV group and the PBS group were separately calculated using the following formula. […]
(§3) Images of the MyoD-immunostained specimens were taken with a digital camera mounted on a microscope, and the number of MyoD-positive nuclei in the muscle tissue area extending 2.5 mm on each side of the muscle incision site was counted. The MyoD-positive ratios in the SV group and the PBS group were separately calculated using the following formula. […]
as §3, with “myogenin-immunostained” for “MyoD-immunostained”, “myogenin-positive” for “MyoD-positive”

[5] = system: Human skeletal muscle myoblasts (HSMMs); assay: Cell proliferative capacity (WST-1 assay); format: cell-based; conditions: SV peptide 20 ng/mL
Description: as §2
Human skeletal muscle satellite cells and human skeletal muscle myoblasts were separately seeded at 1.0×10^4 cells/mL in each well of non-treated polystyrene 96-well cell culture plates (Falcon). The SV peptide (20 ng/mL, SV group), the random SV (20 ng/mL, random SV group), or PBS (PBS group) was added to the medium. The plates were cultured at 37° C. in a 5% CO2 atmosphere. After 0, 12, 24, 48, and 72 hours, cell proliferation was assessed using Premix WST-1 Cell Proliferation Assay System (Takara Bio, Japan).

SVVYGLR [SV peptide]
chewing side preference ([1]; postoperative weeks 1 and 8, SV peptide into left masseter, right incision only): increase in left-side chewing preference over time postoperatively
integral of bursts in the left (administration side) masseter muscle ([1]; weeks 4, 6, and 8, relative to 1-week postoperative value = 1, SV group vs PBS group): significantly greater values than those in the PBS group
feeding efficiency (food intake per unit of mastication time) ([2]; postoperative week 8, SV group vs PBS group): significantly higher value than that in the PBS group
feeding efficiency (food intake per unit of mastication time) ([2]; time course postoperative weeks 1, 2, 4, 6, 8, relative to week 1 value = 1): time-dependent improvement in feeding efficiency
chemotactic capacity (number of cells migrated to lower surface of membrane) [3]: significantly higher chemotactic capacity than that of the counterpart in the PBS group or the random SV group
granulation tissue area ratio (administration side / non-administration side) ([4]; HE staining): significant reduction in granulation tissue formation
MyoD-positive ratio (administration side / non-administration side) ([4]; MyoD immunostaining, SV group vs PBS group): significant increase of MyoD-positive cells as compared with the PBS group
myogenin-positive ratio (administration side / non-administration side) ([4]; myogenin immunostaining, SV group vs PBS group): significant increase of myogenin-positive cells as compared with the PBS group
cell proliferative capacity ([5]; time course within SV group): significantly increased after 24-hour treatment with the SV peptide and then reached a plateau
cell proliferative capacity ([5]; vs PBS group or random SV group, 12 hours and thereafter): significantly higher at 12 hours post-treatment and remained significantly higher thereafter than that in the PBS group or the random SV group
